Test results from US12059422B2 (MEI Pharma, Inc., priority 2011, dated 2024).

Assays:
[1] = target: T1, PI3K beta (Homo sapiens, UniProt P42338); experiment: Luciferase-based luminescence assay (ADP Glo), PI3K beta enzymatic activity; format: biochemical; details: for IC50: inhibition of enzymatic activity, ADP Glo, 25 μM ATP, read-out: IC50 p110β; for α/β ratio: ratio of enzymatic IC50 values, Table 1
T1 construct: purchased Millipore, Billerica, MA, USA
How it was run: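 Final enzyme 4.8 nM PI3K beta or 7.6 nM PI3K gamma, with 50 μM PIP2 and 25 μM ATP, 1 h in HEPES pH 7.5 buffer with MgCl2, EGTA, NaCl, CHAPS and DTT. ADP formed measured by ADP-Glo luminescence; IC50 from 10-point curve fits.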

[2] = target: T2, PI3Kγ (Mus musculus, UniProt Q9JHG7); experiment: ELISA assay for PI3Kγ: in-cell ELISA, phosphorylation of AKT (Ser473) in RAW 264.7 cells; format: cell-based; details: cellular, pAKT (Ser473), C5a stimulation, read-out: IC50 p110γ
T2 construct: endogenous in cells; host or cells: RAW 264.7 (ATCC #TIB-71)
T2 sequence (Q9JHG7 whole entry): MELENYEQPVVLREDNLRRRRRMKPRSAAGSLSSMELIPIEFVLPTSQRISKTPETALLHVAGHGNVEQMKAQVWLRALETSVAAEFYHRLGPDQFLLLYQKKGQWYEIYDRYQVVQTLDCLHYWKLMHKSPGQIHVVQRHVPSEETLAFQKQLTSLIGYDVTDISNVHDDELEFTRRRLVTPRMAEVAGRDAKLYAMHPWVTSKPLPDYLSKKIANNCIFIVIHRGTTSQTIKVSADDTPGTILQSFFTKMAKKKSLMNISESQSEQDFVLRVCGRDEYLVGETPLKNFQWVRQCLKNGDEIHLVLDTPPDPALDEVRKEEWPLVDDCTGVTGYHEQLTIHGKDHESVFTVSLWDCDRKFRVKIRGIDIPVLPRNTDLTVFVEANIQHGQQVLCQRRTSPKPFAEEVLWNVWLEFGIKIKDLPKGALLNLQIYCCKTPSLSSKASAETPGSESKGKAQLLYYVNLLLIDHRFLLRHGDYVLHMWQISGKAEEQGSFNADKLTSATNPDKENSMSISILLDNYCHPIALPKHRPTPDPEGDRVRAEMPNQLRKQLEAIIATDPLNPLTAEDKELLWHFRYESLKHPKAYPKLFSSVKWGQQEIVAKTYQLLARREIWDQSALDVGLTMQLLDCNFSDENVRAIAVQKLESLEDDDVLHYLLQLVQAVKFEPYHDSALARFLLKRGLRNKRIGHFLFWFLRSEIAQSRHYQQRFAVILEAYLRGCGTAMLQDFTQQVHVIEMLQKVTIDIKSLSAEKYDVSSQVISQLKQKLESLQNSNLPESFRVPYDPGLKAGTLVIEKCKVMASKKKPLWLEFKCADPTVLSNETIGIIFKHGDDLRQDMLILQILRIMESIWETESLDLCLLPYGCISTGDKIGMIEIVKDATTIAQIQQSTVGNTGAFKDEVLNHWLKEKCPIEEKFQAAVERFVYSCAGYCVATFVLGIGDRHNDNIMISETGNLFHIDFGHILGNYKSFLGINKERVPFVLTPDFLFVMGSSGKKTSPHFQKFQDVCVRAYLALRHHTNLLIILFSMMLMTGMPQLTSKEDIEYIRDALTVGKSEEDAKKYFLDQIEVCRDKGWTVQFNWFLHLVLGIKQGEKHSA
Method: PI3K gamma (PI3Kγ) activity was determined by measuring the phosphorylation of AKT (Ser473) using an in-cell ELISA assay. RAW 264.7 (mouse macrophage) cells were obtained from ATCC (ATCC #TIB-71). Growth medium was DMEM (CellGro #CV-10-013-CV) supplemented with 10% fetal bovine serum, 100 IU/mL penicillin, 100 μg/mL streptomycin, and 1×MEM non-essential amino acids. Phosphate buffered saline (PBS) contained 2.7 M NaCl, 54 mM KCl, 86 mM […] (dibasic, anhydrous), and 28 mM […] (monobasic, anhydrous) at pH 7.2. Stimulation mixture (10×) was 500 ng/mL recombinant human complement component C5a (R&D systems #2037-C5-025) diluted in serum-free DMEM medium (CellGro #CV-10-013-CV). Compounds for testing were dissolved and serially diluted in 100% DMSO (total of 10 concentrations), then diluted in serum-free DMEM to 2× final assay concentration. Fixative solution (2×) was 8% formaldehyde (Amresco #M134) diluted in PBS. Permeabilization solution was PBS supplemented with 0.10% Triton X-100. Blocking buffer was obtained from LiCor (LiCor #927-40000). Wash buffer was PBS supplemented with 0.1% Tween-20. Primary antibody solution was rabbit anti-pAKT^S473 monoclonal antibody (Cell Signaling #4060) and mouse anti-total S6 (Santa Cruz #74459) diluted 1:500 and 1:2000, respectively, in the blocking buffer. Secondary antibody solution was IRDye 800CW-conjugated goat anti-rabbit IgG (LiCor #926-32211) and IRDye 680LT-conjugated goat anti-mouse IgG (LiCor #926-68020) diluted 1:1000 and 1:2000, respectively, in the blocking buffer.
RAW 264.7 cells were subcultured in growth medium and seeded into flat, clear bottom, 96-well plates (Corning #3904) at 70000 cells/well, then incubated overnight in a 37° C., 5% CO2 incubator. Growth medium in plates was replaced with 100 μL/well serum-free DMEM and incubated overnight in a 37° C., 5% CO2 incubator. Fresh serum-free DMEM (50 μL/well) was added to plates. Compound treatment was performed by adding 50 μL/well of 2× compound mixture to plates and incubating for 2 hrs at 37° C., 5% CO2, after which 11 μL/well of 10× stimulation mixture was added and plates were incubated for 3 min at 37° C., 5% CO2. Fixation was performed by adding 110 μL/well of 2× fixative solution to plates and incubating for 20 min at room temperature. Permeabilization was performed by replacing fixation solution with 150 μL/well permeabilization solution and incubating for 10 min at room temperature. Permeabilization was repeated (for a total of 2 times). Permeabilization solution was replaced with 100 μL/well blocking buffer and plates were incubated for 1 hr at room temperature, after which 100 μL/well of primary antibody solution was added and plates were incubated overnight at 4° C. Plates were washed with wash buffer, after which 100 μL/well of secondary antibody solution was added to the plates and incubated in the dark for 1 hr at room temperature. Plates were washed with wash buffer, followed by awash with PBS. After completely removing PBS, plates were scanned on the Licor Odyssey Imager. Images were quantified using Licor Odyssey application software. IC50 values were determined by curve fitting using a Collaborative Drug Discovery database (www.collaborativedrug.com).

T1 sequence (P42338 whole entry, species assumed): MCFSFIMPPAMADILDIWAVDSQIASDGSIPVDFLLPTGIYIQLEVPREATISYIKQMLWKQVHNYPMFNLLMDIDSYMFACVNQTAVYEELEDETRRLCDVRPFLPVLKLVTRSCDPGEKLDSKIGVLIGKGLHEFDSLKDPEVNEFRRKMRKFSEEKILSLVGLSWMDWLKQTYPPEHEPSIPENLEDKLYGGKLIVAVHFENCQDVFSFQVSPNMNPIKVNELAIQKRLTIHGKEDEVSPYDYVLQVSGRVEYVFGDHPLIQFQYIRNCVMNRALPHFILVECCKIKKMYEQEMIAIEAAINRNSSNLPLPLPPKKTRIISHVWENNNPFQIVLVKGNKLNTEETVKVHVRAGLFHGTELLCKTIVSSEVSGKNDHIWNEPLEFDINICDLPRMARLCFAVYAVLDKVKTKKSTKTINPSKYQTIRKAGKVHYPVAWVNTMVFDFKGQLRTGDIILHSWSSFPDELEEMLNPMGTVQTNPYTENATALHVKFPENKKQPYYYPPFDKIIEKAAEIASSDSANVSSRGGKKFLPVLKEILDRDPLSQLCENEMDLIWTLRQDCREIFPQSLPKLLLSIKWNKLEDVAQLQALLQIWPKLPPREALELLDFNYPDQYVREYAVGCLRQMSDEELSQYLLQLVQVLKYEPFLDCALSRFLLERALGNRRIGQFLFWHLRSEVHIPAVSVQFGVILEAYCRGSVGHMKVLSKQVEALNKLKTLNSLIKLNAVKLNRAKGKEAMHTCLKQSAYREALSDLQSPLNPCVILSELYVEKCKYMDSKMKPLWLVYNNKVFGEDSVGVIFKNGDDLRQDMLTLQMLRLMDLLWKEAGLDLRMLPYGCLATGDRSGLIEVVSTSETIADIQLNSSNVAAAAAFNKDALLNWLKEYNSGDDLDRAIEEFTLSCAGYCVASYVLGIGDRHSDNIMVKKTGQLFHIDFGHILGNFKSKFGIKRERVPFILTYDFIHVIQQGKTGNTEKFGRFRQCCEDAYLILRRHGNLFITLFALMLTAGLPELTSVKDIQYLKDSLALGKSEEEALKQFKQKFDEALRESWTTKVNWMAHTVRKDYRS
T1 sequence (P27986 whole entry partner, species assumed): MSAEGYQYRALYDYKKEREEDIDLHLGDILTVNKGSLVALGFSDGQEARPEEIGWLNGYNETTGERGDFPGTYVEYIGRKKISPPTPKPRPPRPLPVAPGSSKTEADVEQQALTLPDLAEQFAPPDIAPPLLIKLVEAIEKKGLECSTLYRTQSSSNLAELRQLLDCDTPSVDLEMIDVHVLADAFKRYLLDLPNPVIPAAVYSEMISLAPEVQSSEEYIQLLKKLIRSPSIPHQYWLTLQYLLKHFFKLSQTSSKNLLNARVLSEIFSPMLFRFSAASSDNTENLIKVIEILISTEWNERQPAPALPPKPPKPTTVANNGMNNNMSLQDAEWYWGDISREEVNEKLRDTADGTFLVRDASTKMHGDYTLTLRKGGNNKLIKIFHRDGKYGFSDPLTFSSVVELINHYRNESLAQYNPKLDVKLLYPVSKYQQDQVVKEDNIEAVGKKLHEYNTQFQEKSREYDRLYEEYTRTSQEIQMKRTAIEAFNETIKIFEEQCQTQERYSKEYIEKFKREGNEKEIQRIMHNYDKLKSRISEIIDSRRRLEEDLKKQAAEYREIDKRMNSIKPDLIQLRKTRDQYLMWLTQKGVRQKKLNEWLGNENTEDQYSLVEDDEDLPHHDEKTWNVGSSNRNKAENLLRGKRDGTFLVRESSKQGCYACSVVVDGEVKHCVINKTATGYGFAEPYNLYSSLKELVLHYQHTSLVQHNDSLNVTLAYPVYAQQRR

IC50 [1] [nM]	α/β ratio [1]	IC50 [2] [nM]	Compound
≤ 100	A’	100 to 200	CC(C)(Cc1cccc(F)c1)Nc1nc(N2CCOCC2)nc(-n2c(C(F)F)nc3ccccc32)n1 [Compound A39, 4-(2-(difluoromethyl)-1H-benzo[d]imidazol-1-yl)-N-(1-(3-fluorophenyl)-2-methylpropan-2-yl)-6-morpholino-1,3,5-triazin-2-amine]
≤ 100	A’	200 to 500	Cn1nccc1-c1ccccc1CC(C)(C)Nc1nc(N2CCOCC2)nc(-n2c(C(F)F)nc3ccccc32)n1 [Compound A46, 4-(2-(difluoromethyl)-1H-benzo[d]imidazol-1-yl)-N-(2-methyl-1-(2-(1-methyl-1H-pyrazol-5-yl)phenyl)propan-2-yl)-6-morpholino-1,3,5-triazin-2-amine]
≤ 100	A’	> 500	CC(C)(Cc1ccccc1Cl)Nc1nc(N2CCOCC2)nc(-n2c(C(F)F)nc3ccccc32)n1 [Compound A16, 4-(2-(difluoromethyl)-1H-benzo[d]imidazol-1-yl)-N-(1-(2-chlorophenyl)-2-methylpropan-2-yl)-6-morpholino-1,3,5-triazin-2-amine]
100 to 200	D’	200 to 500	CC(C)(Cc1ccccc1F)Nc1nc(N2CCOCC2)nc(-n2c(C(F)F)nc3ccccc32)n1 [Compound A15, 4-(2-(difluoromethyl)-1H-benzo[d]imidazol-1-yl)-N-(1-(2-fluorophenyl)-2-methylpropan-2-yl)-6-morpholino-1,3,5-triazin-2-amine]
> 500	D’	> 500	CC(C)N1CCC(c2ccccc2CC(C)(C)Nc2nc(N3CCOCC3)nc(-n3c(C(F)F)nc4ccccc43)n2)CC1 [Compound A71, 4-(2-(difluoromethyl)-1H-benzo[d]imidazol-1-yl)-N-(1-(2-(1-isopropylpiperidin-4-yl)phenyl)-2-methylpropan-2-yl)-6-morpholino-1,3,5-triazin-2-amine]

Continued, compound first:

Compound	IC50 [1] [nM]	α/β ratio [1]	IC50 [2] [nM]
COc1cccc(-c2ccccc2CC(C)(C)Nc2nc(N3CCOCC3)nc(-n3c(C(F)F)nc4ccccc43)n2)c1 [Compound A66, 4-(2-(difluoromethyl)-1H-benzo[d]imidazol-1-yl)-N-(1-(3′-methoxybiphenyl-2-yl)-2-methylpropan-2-yl)-6-morpholino-1,3,5-triazin-2-amine]	> 500	D’	> 500
CC(C)(Cc1ccccc1-c1cncnc1)Nc1nc(N2CCOCC2)nc(-n2c(C(F)F)nc3ccccc32)n1 [Compound A63, 4-(2-(difluoromethyl)-1H-benzo[d]imidazol-1-yl)-N-(2-methyl-1-(2-(pyrimidin-5-yl)phenyl)propan-2-yl)-6-morpholino-1,3,5-triazin-2-amine]	≤ 100	D’	> 500
CC(C)(Cc1ccccc1-c1cn[nH]c1)Nc1nc(N2CCOCC2)nc(-n2c(C(F)F)nc3ccccc32)n1 [Compound A44, 4-(2-(difluoromethyl)-1H-benzo[d]imidazol-1-yl)-N-(1-(2-(1H-pyrazol-4-yl)phenyl)-2-methylpropan-2-yl)-6-morpholino-1,3,5-triazin-2-amine]	≤ 100	A’	≤ 100
CN1CCN(c2cc(-c3ccccc3CC(C)(C)Nc3nc(N4CCOCC4)nc(-n4c(C(F)F)nc5ccccc54)n3)ccn2)CC1 [Compound A64, 4-(2-(difluoromethyl)-1H-benzo[d]imidazol-1-yl)-N-(2-methyl-1-(2-(2-(4-methylpiperazin-1-yl)pyridin-4-yl)phenyl)propan-2-yl)-6-morpholino-1,3,5-triazin-2-amine]	≤ 100	A’	> 500
COc1cc(CC(C)(C)Nc2nc(N3CCOCC3)nc(-n3c(C(F)F)nc4ccccc43)n2)ccc1F [Compound A50, 4-(2-(difluoromethyl)-1H-benzo[d]imidazol-1-yl)-N-(1-(4-fluoro-3-methoxyphenyl)-2-methylpropan-2-yl)-6-morpholino-1,3,5-triazin-2-amine]	≤ 100	B’	200 to 500
CC(C)(Cc1ccccc1C1CCNC1)Nc1nc(N2CCOCC2)nc(-n2c(C(F)F)nc3ccccc32)n1 (stereo not drawn) [Compound A74, 4-(2-(difluoromethyl)-1H-benzo[d]imidazol-1-yl)-N-(2-methyl-1-(2-(pyrrolidin-3-yl)phenyl)propan-2-yl)-6-morpholino-1,3,5-triazin-2-amine]	> 500	D’	200 to 500
CC(C)(Cc1ccccc1-c1cccnc1F)Nc1nc(N2CCOCC2)nc(-n2c(C(F)F)nc3ccccc32)n1 [Compound A62]	> 500	D’	200 to 500
CC(C)(Cc1ccccc1)Nc1nc(N2CCOCC2)nc(-n2c(C(F)F)nc3ccccc32)n1 [Compound A14, 4-(2-(difluoromethyl)-1H-benzo[d]imidazol-1-yl)-N-(2-methyl-1-phenylpropan-2-yl)-6-morpholino-1,3,5-triazin-2-amine]	≤ 100	A’	200 to 500
